The results in this text go back to ChEMBL document CHEMBL3399945, “A class of sulfonamide carbonic anhydrase inhibitors with neuropathic pain modulating effects” (Bioorg Med Chem, 2015).

For assay [1], the target named is Carbonic anhydrase 1 (Homo sapiens, UniProt P00915). The assay can be described thus: Inhibition of human recombinant CA-1 after 15 mins by stopped-flow CO2 hydrase assay.
Assay [2] addresses Carbonic anhydrase 2 (Homo sapiens, UniProt P00918). The assay can be described thus: Inhibition of human recombinant CA-2 after 15 mins by stopped-flow CO2 hydrase assay.
For assay [3], the target named is Carbonic anhydrase 7 (Homo sapiens, UniProt P43166). The assay can be described thus: Inhibition of human recombinant CA-7 after 15 mins by stopped-flow CO2 hydrase assay.
Assay [4] deals with Carbonic anhydrase 9 (Homo sapiens, UniProt Q16790).
Description: Inhibition of human recombinant CA-9 after 15 mins by stopped-flow CO2 hydrase assay
Assay [5] addresses Carbonic anhydrase 12 (Homo sapiens, UniProt O43570).
Description: Inhibition of human recombinant CA-12 after 15 mins by stopped-flow CO2 hydrase assay
Assay [6] deals with Mus musculus. The assay can be described thus: Inhibition of oxaliplatin-induced neuropathic pain in po dosed CD-1 mouse model assessed as latency to pain-related behavior after 15 to 45 mins by cold plate test. It counts as functional.
Assay [7] relates to Mus musculus. Description: Inhibition of oxaliplatin-induced neuropathic pain in po dosed CD-1 mouse model assessed as latency to pain-related behavior after 15 to 45 mins by cold plate test relative to acetazolamide. It counts as functional.

Sequence of Carbonic anhydrase 1 (P00915 whole entry): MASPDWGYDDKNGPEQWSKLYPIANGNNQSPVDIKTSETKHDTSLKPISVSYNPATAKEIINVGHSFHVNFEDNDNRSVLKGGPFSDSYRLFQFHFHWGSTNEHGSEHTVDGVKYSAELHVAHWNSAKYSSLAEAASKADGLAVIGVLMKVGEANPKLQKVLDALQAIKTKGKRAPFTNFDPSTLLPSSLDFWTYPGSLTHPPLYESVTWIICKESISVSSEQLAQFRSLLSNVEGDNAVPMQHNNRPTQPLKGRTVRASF
Sequence of Carbonic anhydrase 12 (O43570 whole entry): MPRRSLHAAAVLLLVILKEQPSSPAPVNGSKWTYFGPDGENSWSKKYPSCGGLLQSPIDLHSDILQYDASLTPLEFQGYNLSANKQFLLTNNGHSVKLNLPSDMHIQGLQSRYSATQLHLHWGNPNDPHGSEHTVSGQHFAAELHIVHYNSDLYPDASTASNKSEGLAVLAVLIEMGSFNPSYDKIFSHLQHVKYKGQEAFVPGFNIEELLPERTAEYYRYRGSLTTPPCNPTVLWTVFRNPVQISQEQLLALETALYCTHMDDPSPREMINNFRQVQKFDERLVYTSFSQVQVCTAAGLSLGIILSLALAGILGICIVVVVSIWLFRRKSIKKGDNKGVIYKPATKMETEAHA
Sequence of Carbonic anhydrase 7 (P43166 whole entry): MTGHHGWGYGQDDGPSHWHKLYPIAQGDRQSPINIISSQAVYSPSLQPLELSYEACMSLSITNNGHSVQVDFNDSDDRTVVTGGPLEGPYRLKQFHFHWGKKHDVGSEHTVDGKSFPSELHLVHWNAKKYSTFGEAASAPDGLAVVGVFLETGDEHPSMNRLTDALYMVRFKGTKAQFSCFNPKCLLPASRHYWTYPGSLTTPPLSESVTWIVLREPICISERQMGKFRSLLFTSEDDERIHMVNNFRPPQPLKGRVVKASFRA

Consider `NS(=O)(=O)c1ccc(OCc2ccccc2)cc1`, for which the Ki came out at 762 nM in assay [1]; 20.3 nM in assay [2]; 8.3 nM in assay [3]; 17.9 nM in assay [4]; 10.5 nM in assay [5].
For `NS(=O)(=O)c1nc2ccc(OCC#Cc3ccccc3)cc2s1`, the Ki in assay [1] was determined as 2420 nM; in assay [2], 52.1 nM; in assay [3], 73.8 nM; in assay [4], 10.3 nM; in assay [5], 6.2 nM.
`NS(=O)(=O)c1ccc(OCc2ccc(Br)cc2)cc1`: the Ki was determined as 246 nM in assay [1]; 27.8 nM in assay [2]; 8.9 nM in assay [3]; 3.5 nM in assay [4]; 6.4 nM in assay [5].
`CCCOc1ccc(S(N)(=O)=O)cc1`: the Ki in assay [1] worked out at 780 nM; in assay [2] it was 12.8 nM; in assay [3], 10.1 nM; in assay [4] it was 13.2 nM; in assay [5], 7.9 nM.
Consider `NS(=O)(=O)c1ccc(OCCc2ccccc2)cc1`, for which the Ki was 207 nM in assay [1]; 7.8 nM in assay [2]; 9.4 nM in assay [3]; 2.4 nM in assay [4]; 1.2 nM in assay [5].
Turning to `NS(=O)(=O)c1ccc(OCc2ccc([N+](=O)[O-])cc2)cc1`, the inhibition constant (Ki) in assay [1] worked out at 143 nM; in assay [2], 1.4 nM; in assay [3] it was 0.9 nM; in assay [4] it was 1.3 nM; in assay [5], 0.72 nM.
Consider `C=CCOc1ccc(S(N)(=O)=O)cc1`, for which the Ki stood at 9.9 nM in assay [3], 13.5 nM in assay [4] and 6.8 nM in assay [5].
As for `NS(=O)(=O)c1ccc(OCc2c(F)c(F)c(F)c(F)c2F)cc1`, the Ki in assay [1] was 231 nM; in assay [2], 26 nM; in assay [3] it was 8.9 nM; in assay [4] it was 0.86 nM; in assay [5], 0.75 nM.
As for `NS(=O)(=O)c1nc2ccc(OCc3ccccc3)cc2s1`, the Ki was 48.1 nM in assay [1], 7.6 nM in assay [2], 7.7 nM in assay [3] and 2.5 nM in assay [5].
In the case of `C#CCN(CC#C)c1ccc(S(N)(=O)=O)cc1`, the Ki in assay [1] came to 6400 nM; in assay [2], 1780 nM; in assay [3] it was 8.6 nM; in assay [4], 9 nM; in assay [5], 4.9 nM.
Take `C#CCOc1ccc(S(N)(=O)=O)cc1`: the inhibition constant Ki came to 2340 nM in assay [1], 28.7 nM in assay [2], 9.6 nM in assay [3] and 2.3 nM in assay [5].
Turning to `CC(=O)Nc1nnc(S(N)(=O)=O)s1` [ACETAZOLAMIDE], in assay [6] (CD-1, po, read-out: MED), the minimal effective dose was 30 mg/kg.
As for `NS(=O)(=O)c1ccc(OCc2ccc(F)cc2)cc1`, the Ki in assay [1] amounted to 315 nM; in assay [2], 23.8 nM; in assay [3] it was 9.7 nM; in assay [5], 8 nM.
As for `NS(=O)(=O)c1ccc2c(c1)CCN2C(=O)C(F)(F)F`, the inhibitory constant (Ki) in assay [1] is 34.3 nM; in assay [2], 9.2 nM; in assay [3], 8.3 nM; in assay [4] it was 6.9 nM; in assay [5] it was 4.1 nM.
On to `NS(=O)(=O)c1ccc(OCC#Cc2ccccc2)cc1`, for which the Ki in assay [1] is 3450 nM; in assay [2] it was 41.6 nM; in assay [3], 97.2 nM; in assay [4], 21.6 nM; in assay [5], 33.8 nM.
Turning to `CCCCOc1ccc(S(N)(=O)=O)cc1`, the Ki was 797 nM in assay [1]; 7.3 nM in assay [2]; 9.8 nM in assay [3]; 10.1 nM in assay [4]; 8.5 nM in assay [5].
Regarding `CCOc1ccc(S(N)(=O)=O)cc1`, the Ki in assay [1] was determined as 246 nM; in assay [2] it was 23.1 nM; in assay [3], 9.5 nM; in assay [4], 8.1 nM; in assay [5], 13.6 nM. Moreover, in assay [6], the inhibition result was “Dose-dependent effect”. Also, the Ratio in assay [7] was 3.
For `NS(=O)(=O)c1ccc(OCC(c2ccccc2)c2ccccc2)cc1`, the Ki in assay [1] came to 5680 nM; in assay [2], 22.1 nM; in assay [3] it was 70.7 nM; in assay [4] it was 34.1 nM; in assay [5], 50.4 nM.
For the compound `NS(=O)(=O)c1ccc(OCCN2CCOCC2)cc1`, the Ki in assay [1] turned out to be 453 nM; in assay [2], 31.7 nM; in assay [3] it was 86.4 nM; in assay [5], 10.7 nM.

The Ki is a dissociation constant, usually derived from enzyme kinetics or from competition with a known ligand.
